In patent publication US4997950A, “Novel C-terminal gastrin antagonists” (priority 1989, dated 1991):
“Also recorded” adds a separate entry of the source. Counter-ions that a name gives are not always drawn. Non-standard residues stand in square brackets, D forms with d. Residues, ends and D or L forms follow the SMILES beside them. *: point of attachment. Boc = CC(C)(C)OC(=O)*; βAla = NCCC(=O)O

Assays:
[1] = tested on: gastrin / pentagastrin-stimulated acid secretion; conditions: cited from earlier work
[2] = tested on: pentagastrin-stimulated acid secretion; test: inhibition of pentagastrin-stimulated acid secretion in dogs with gastric fistula and Heidenhain pouch; format: in vivo, dog (beagle); conditions: for order of decreasing antagonist activity: 20 pmol.kg^-1.h^-1; for effect on pentagastrin-stimulated acid secretion: 20 pmol.kg^-1.h^-1, gastric fistula and Heidenhain pouch; for ACID INHIBITION / percentage inhibition of acid: analogue 20 pmol.kg^-1.h^-1, period 110-170 minutes
Experimental: (§1) In brief, six beagle dogs were surgically prepared with Heidenhain pouches and gastric fistula. The dogs were fasted for 18 hours before the experiment. […] Collections of gastric secretions were recovered at 10 minute intervals. Each dog received an intravenous infusion throughout the experiment consisting of 150 mM NaCl and 8 mM KCl at 2 ml.min^-1. Secretory stimulants and the synthetic peptides were added to this infusion at appropriate rates. The stimulants of gastric secretion used were pentagastrin and histamine phosphate. Pentagastrin (0.5 μg.Kg^-1.h^-1) was given for 1 hour and then the synthetic peptide was added to the infusion and continued for another hour at a dose of 20 pmol.kg^-1 h^-1. The procedure was identical for histamine except that the dose of histamine was […]. The ten minute samples were titrated to pH 7.0 by the addition of sodium hydroxide (1 mM) and the acid secretion was expressed as μmol H^+ per 10 minutes.
The analogues depicted in Table 6.5 were tested as gastrin antagonists using dogs surgically prepared with gastric fistulae and Heidenhain pouches. The acid secretion was measured at 10 minute intervals during the administration of pentagastrin and each of the analogues.

pepsin secretion = test: inhibition of pepsin secretion in dogs with gastric fistula and Heidenhain pouch; format: in vivo, dog (beagle); conditions: for effect on pepsin secretion: gastric fistula
Experimental: as §1

[3] = tested on: pentagastrin stimulated acid secretion, rat stomach; test: acid secretion from the ligated rat stomach; format: in vivo, rat (Sprague-Dawley); conditions: for ACID SECRETION: basal 26.7 ± 3.21
Experimental: In brief fasted male Sprague-Dawley rats (200-250 g) were anaesthetised by the intravenous administration of Sagital (0.1 mg/100 g body weight). The abdominal cavity of each rat was exposed and the stomach was ligated at the pyloric and cardiac sphincters. The test solution (200 μl), containing either saline, pentagastrin (1 μg) or the synthetic peptide in conjunction with pentagastrin (1 μg), was applied directly to the exposed stomach surface, and left for 80 minutes. The stomach was then removed and the contents were washed out with distilled water (15 ml). The washings were titrated to neutrality by the addition of sodium hydroxide (10 mM).

[4] = tested on: acid secretion, isolated perfused rat stomach; test: acid output from the isolated, perfused rat stomach, with or without gastrin-17; parameters: species or system rat (Wistar)
Experimental: In brief, stomachs from fasted male Wistar rats (240-270 g) were completely isolated and placed in organ baths filled with Krebs-Ringer buffer. The vascular bed was perfused at a rate of 2 ml.min^-1 with Krebs-Ringer buffer containing 5 mM glucose, 5 mM pyruvate, 40 mg.ml^-1 bovine serum albumin and 10% (v/v) fresh, washed ovine erythrocytes gassed with 96% O2, 4% CO2 by a membrane oxygenator. The gastric lumen was perfused with distilled water (pH 7.0) gassed with O2 (100%). All perfusates and the organ bath were kept at 37° C. After an initial "wash-out" period of 20 minutes, isobutylmethylxanthine (50 μM) was added to the vascular perfusate. After a further 20 minutes, the peptide to be tested was added, giving a final peptide concentration of 10^-9, 10^-7 or 10^-5 M. Five other stomachs were given 520 pM gastrin which was known to produce maximal acid secretion. Furthermore, each peptide was given together with gastrin (520 pM) to evaluate the gastrin inhibitory properties of the peptide. The acid output was determined by titration of the lumenal perfusate to neutrality with dodium hydroxide (1 mM).

SMILES: CC(C)C[C@H](NC(=O)[C@H](Cc1c[nH]c2ccccc12)NC(=O)OC(C)(C)C)C(=O)N[C@@H](CC(=O)O)C(N)=O [N-tBOC-Trp-Leu-Asp-NH2] (Boc-Trp-Leu-Asp-NH2)
- antagonist activity [1]: shortest sequence still retaining antagonist activity
- concentration at which antagonist properties are exhibited [1]: 100 µM
- reduction of acid secretion ([1]; joint infusion of peptide (40 μg/kg) and pentagastrin (0.5 μg/kg)): 50%

SMILES: CC(C)C[C@H](NC(=O)CCc1ccccc1)C(=O)N(C)CCC(=O)O [Peptide XV, Phenyl-3-propionyl-L-Leucyl-N-Methyl-β-Alanine]
- order of decreasing antagonist activity [2]: I>III>XIV>XV>II
- effect on pentagastrin-stimulated acid secretion [2]: antagonists with significant activity
- ACID INHIBITION ([2]; GF (gastric fistula)): 185.32 mmol H^+ /kg
- percentage inhibition of acid ([2]; GF (gastric fistula)): 18%

SMILES: CC(C)C[C@H](NC(=O)CCc1c[nH]c2ccccc12)C(=O)NCCC(=O)O [Peptide III, Indole-3-Propionyl-L-Leucyl-β-Alanine]
- order of decreasing antagonist activity [2]: I>III>XIV>XV>II
- effect on pentagastrin-stimulated acid secretion [2]: gastrin antagonists although they are less potent than the parent peptide
- ACID INHIBITION ([2]; GF (gastric fistula)): 125.51 mmol H^+ /kg
- percentage inhibition of acid ([2]; GF (gastric fistula)): 12.2%
- Inhibition of Pepsin Secretion (pepsin secretion; GF (gastric fistula)): 71.1 Units/kg
- percentage inhibition of pepsin secretion (pepsin secretion; GF (gastric fistula)): 62.5%
- Inhibition of Pepsin Secretion (pepsin secretion; HP (Heidenhain pouch)): 5.78 Units/kg
- effect on pepsin secretion (pepsin secretion): significant decrease in pepsin secretion from the gastric fistula

SMILES: CSCC[C@H](NC(=O)[C@H](Cc1c[nH]c2ccccc12)NC(=O)CCNC(=O)OC(C)(C)C)C(=O)N[C@@H](CC(=O)O)C(=O)N[C@@H](Cc1ccccc1)C(N)=O [PENTAGASTRIN, reference compound]
- ACID SECRETION ([3]; pentagastrin 13 nmol/kg alone): 60.6 ± 8.63 μmol/80 min

SMILES: CSCCC(NC(=O)C(Cc1c[nH]c2ccccc12)NC(=O)CNC(=O)C(Cc1ccc(O)cc1)NC(=O)C(C)NC(=O)C(CCC(=O)O)NC(=O)C(CCC(=O)O)NC(=O)C(CCC(=O)O)NC(=O)[C@H](CCC(=O)O)NC(=O)[C@H](CCC(=O)O)NC(=O)[C@H](CC(C)C)NC(=O)[C@H](Cc1c[nH]c2ccccc12)NC(=O)[C@@H]1CCCN1C(=O)CNC(=O)[C@@H](N)CCC(=O)O)C(=O)NC(CC(=O)O)C(=O)NC(Cc1ccccc1)C(N)=O (stereo in doubt) [GASTRIN]
- Acid output ([4]; gastrin 520 pM alone, basal 8.7): 58.7 μmol H^+ /60 min

SMILES: CC(C)C[C@H](NC(=O)CCc1ccccc1)C(=O)NCCC(=O)O [Peptide II, Phenyl-3-Propionyl-Leucyl-β-Alanine]
- order of decreasing antagonist activity [2]: I>III>XIV>XV>II
- effect on pentagastrin-stimulated acid secretion [2]: gastrin antagonists although they are less potent than the parent peptide
- ACID INHIBITION ([2]; GF (gastric fistula)): 562.22 mmol H^+ /kg
- percentage inhibition of acid ([2]; GF (gastric fistula)): 54.7%
- ACID INHIBITION ([2]; HP (Heidenhain pouch)): 32.59 mmol H^+ /kg
- percentage inhibition of acid ([2]; HP (Heidenhain pouch)): 50.92%

SMILES: CC(C)C[C@H](NC(=O)[C@@H](N)Cc1c[nH]c2ccccc12)C(=O)CN[C@@H](CC(=O)O)C(=O)N[C@@H](Cc1ccccc1)C(N)=O [Peptide XXI, L-Tryptophyl-L-Leucyl-.psi.(COCH2 NH)-L-Aspartyl-L-Phenylalanyl amide dihydrochloride]
- effect on acid secretion, isolated perfused stomach ([4]; 10^-9 to 10^-5 M, absence or presence of gastrin-17 520 pM, dihydrochloride): At low concentrations it inhibits basal acid secretion; also recorded: when administered at 10^-5 M or in conjunction with gastrin-17, it acts as a weak agonist; also recorded: partial agonist
- Acid output ([4]; peptide 10^-5 M + G-17 (520 pM), gastrin alone 58.7): 68.5 μmol H^+ /60 min
- Acid output ([4]; peptide 10^-5 M, basal 8.7): 22.4 μmol H^+ /60 min
- Acid output ([4]; peptide 10^-7 M, basal 8.7): 1.6 μmol H^+ /60 min
- Acid output ([4]; peptide 10^-9 M, basal 8.7): 2.2 μmol H^+ /60 min

SMILES: CC(C)C[C@H](NC(=O)[C@H](Cc1c[nH]c2ccccc12)NC(=O)OC(C)(C)C)C(=O)NCCC(=O)O [Peptide I, t-Butyloxycarbonyl-L-Tryptophyl-L-Leucyl-β-Alanine] (Boc-Trp-Leu-[βAla]-OH)
- ACID SECRETION ([3]; peptide 8.2 nmol/kg + pentagastrin 13 nmol/kg): 22.7 ± 7.27 μmol/80 min
- effect on acid secretion, ligated stomach ([3]; peptide I 8.2 nmol.Kg^-1 with pentagastrin, peptide XXII 80 or 4 pmol.Kg^-1): potent antagonist of pentagastrin stimulated acid secretion; also recorded: reduced to a value similar to the basal level
- ACID SECRETION ([3]; peptide alone 8.2 nmol/kg): 28.6 ± 4.21 μmol/80 min
- order of decreasing antagonist activity [2]: I>III>XIV>XV>II
- effect on pentagastrin-stimulated acid secretion ([2]; listed as Boc-Trp-Leu-β-Ala): retaining potent antagonistic properties
- effect on pentagastrin-stimulated acid secretion ([2]; listed as Boc-Trp-leu-β-Ala): most potent antagonist of the series
- ACID INHIBITION ([2]; GF (gastric fistula)): 617.58 mmol H^+ /kg
- percentage inhibition of acid ([2]; GF (gastric fistula)): 60%
- ACID INHIBITION ([2]; HP (Heidenhain pouch)): 35.70 mmol H^+ /kg
- percentage inhibition of acid ([2]; HP (Heidenhain pouch)): 55.8%
- Inhibition of Pepsin Secretion (pepsin secretion; GF (gastric fistula)): 67.3 Units/kg
- percentage inhibition of pepsin secretion (pepsin secretion; GF (gastric fistula)): 59.2%
- Inhibition of Pepsin Secretion (pepsin secretion; HP (Heidenhain pouch)): 1.65 Units/kg
- effect on pepsin secretion (pepsin secretion): significant decrease in pepsin secretion from the gastric fistula

SMILES: CC(C)C[C@@H](C(=O)NCCC(=O)O)N(C)C(=O)CCc1ccccc1 [Peptide XIV, Phenyl-3-propionyl-N-methyl-L-Leucyl-β-Alanine]
- order of decreasing antagonist activity [2]: I>III>XIV>XV>II
- effect on pentagastrin-stimulated acid secretion [2]: antagonists with significant activity
- ACID INHIBITION ([2]; GF (gastric fistula)): 256.77 mmol H^+ /kg
- percentage inhibition of acid ([2]; GF (gastric fistula)): 25%

SMILES: CC(C)C[C@H](NC(=O)CCc1c[nH]c2ccccc12)C(=O)N[C@@H](CC(=O)O)C(=O)NCCc1ccccc1 [Peptide V, Indole-3-Propionyl-L-Leucyl-L-Aspartyl-Phenethylamide]
- ACID INHIBITION ([2]; GF (gastric fistula)): 303.25 mmol H^+ /kg
- percentage inhibition of acid ([2]; GF (gastric fistula)): 29.5%
- ACID INHIBITION ([2]; HP (Heidenhain pouch)): 11.00 mmol H^+ /kg
- percentage inhibition of acid ([2]; HP (Heidenhain pouch)): 17.2%
- Inhibition of Pepsin Secretion (pepsin secretion; GF (gastric fistula)): -3.1 Units/kg
- percentage inhibition of pepsin secretion (pepsin secretion; GF (gastric fistula)): 0%
- Inhibition of Pepsin Secretion (pepsin secretion; HP (Heidenhain pouch)): 2.04 Units/kg

SMILES: CC(C)C[C@H](NC(=O)[C@H](Cc1c[nH]c2ccccc12)NC(=O)CN1CC[C@H](NC(=O)[C@H](C)NC(=O)OC(C)(C)C)C1=O)C(=O)N[C@@H](CC(=O)O)C(=O)N[C@@H](Cc1ccccc1)C(N)=O [Peptide XXII, t-Butyloxycarbonyl-L-Alanyl-amino-2-oxo-1-pyrrolidineacetyl-L-Tryptophyl-L-Leucyl-L-Aspartyl-L-Phenylalanyl amide]
- increase of affinity for the gastrin receptor as compared to pentagastrin ([3]; deduced from γ-lactam peptide acid secretion): approximately 120 fold
